One test has as its target BTK^WT (Homo sapiens (Human), UniProt Q06187). Nature of the test: BTK^WT binding affinity (TR-FRET, LanthaScreen). The procedure, abridged:
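Tracer-displacement TR-FRET: 2.5 nM recombinant BTK, 2 nM Eu anti-His antibody and 15 nM Kinase Tracer 236 in Kinase Buffer A with inhibitor for 5 h. Emission read at 615/665 nm (excitation 340 nm); IC50 from variable-slope fit of log concentration vs response.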

A further test addresses BTK^C481S (Homo sapiens (Human), UniProt Q06187, C481S). Nature of the test: BTK^C481S binding affinity (TR-FRET, LanthaScreen). The following applies: 5 h incubation. The procedure, abridged: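 Tracer-displacement TR-FRET: 5 nM recombinant kinase, 2 nM Eu anti-His antibody and 30 nM Kinase Tracer 236 incubated 5 h with varying inhibitor in Kinase Buffer A. Read at 340 nm excitation, 615/665 nm emission. IC50 from log[inhibitor]–response variable-slope fit.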

The target in a further test is EGFR (Homo sapiens (Human), UniProt P00533). The experiment in a line: EGFR binding affinity (TR-FRET, LanthaScreen). The following applies: 5 h incubation. In outline: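 IC50 derived by variable-slope fit of TR-FRET signal (ex 340, em 615 and 665 nm) against inhibitor concentration. Mix contained recombinant GST-detected EGFR at 2.5 nM, Eu anti-GST antibody at 2 nM and Kinase Tracer 199 at 3 nM in Kinase Buffer A, 5 h incubation.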

The subject of test [1] is OCI-Ly10 human DLBCL cells. The experiment in a line: OCI-Ly10 anti-proliferative activity (Resazurin, 72 h). Format: cell-based. The settings on record: Homo sapiens, OCI-Ly10, 72 h, read-out: Proliferation OCI-Ly10-IC50. In outline:
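Resazurin fluorescence (590 nm, 5 h dye incubation) read after 72 h compound exposure at 37 °C; NFκB-dependent cells seeded at 7.5×10^3/well in 2.5% FBS medium. Day 0 signal subtracted, values normalised to DMSO control; IC50 from log[inhibitor] vs response, variable-slope fit.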
A general note: Resazurin is reduced to fluorescent resorufin, in cell work by metabolically active cells.

Where [2] appears, read: TR-FRET binding, 5 h incubation, read-out: BTK^WT IC50.
Where [3] appears, read: Table 6, numeric values, read-out: BTK Binding IC50.

Where two headings read alike, the source gives them in different places. Bounds are passed on as bounds.

This is an account of results in patent publication US10399989B2, “Pyrazolopyrimidine derivatives as BTK inhibitors for the treatment of cancer” (Loxo Oncology, Inc., priority 2016, dated 2019).

EGFR, sequence (P00533 25-1210): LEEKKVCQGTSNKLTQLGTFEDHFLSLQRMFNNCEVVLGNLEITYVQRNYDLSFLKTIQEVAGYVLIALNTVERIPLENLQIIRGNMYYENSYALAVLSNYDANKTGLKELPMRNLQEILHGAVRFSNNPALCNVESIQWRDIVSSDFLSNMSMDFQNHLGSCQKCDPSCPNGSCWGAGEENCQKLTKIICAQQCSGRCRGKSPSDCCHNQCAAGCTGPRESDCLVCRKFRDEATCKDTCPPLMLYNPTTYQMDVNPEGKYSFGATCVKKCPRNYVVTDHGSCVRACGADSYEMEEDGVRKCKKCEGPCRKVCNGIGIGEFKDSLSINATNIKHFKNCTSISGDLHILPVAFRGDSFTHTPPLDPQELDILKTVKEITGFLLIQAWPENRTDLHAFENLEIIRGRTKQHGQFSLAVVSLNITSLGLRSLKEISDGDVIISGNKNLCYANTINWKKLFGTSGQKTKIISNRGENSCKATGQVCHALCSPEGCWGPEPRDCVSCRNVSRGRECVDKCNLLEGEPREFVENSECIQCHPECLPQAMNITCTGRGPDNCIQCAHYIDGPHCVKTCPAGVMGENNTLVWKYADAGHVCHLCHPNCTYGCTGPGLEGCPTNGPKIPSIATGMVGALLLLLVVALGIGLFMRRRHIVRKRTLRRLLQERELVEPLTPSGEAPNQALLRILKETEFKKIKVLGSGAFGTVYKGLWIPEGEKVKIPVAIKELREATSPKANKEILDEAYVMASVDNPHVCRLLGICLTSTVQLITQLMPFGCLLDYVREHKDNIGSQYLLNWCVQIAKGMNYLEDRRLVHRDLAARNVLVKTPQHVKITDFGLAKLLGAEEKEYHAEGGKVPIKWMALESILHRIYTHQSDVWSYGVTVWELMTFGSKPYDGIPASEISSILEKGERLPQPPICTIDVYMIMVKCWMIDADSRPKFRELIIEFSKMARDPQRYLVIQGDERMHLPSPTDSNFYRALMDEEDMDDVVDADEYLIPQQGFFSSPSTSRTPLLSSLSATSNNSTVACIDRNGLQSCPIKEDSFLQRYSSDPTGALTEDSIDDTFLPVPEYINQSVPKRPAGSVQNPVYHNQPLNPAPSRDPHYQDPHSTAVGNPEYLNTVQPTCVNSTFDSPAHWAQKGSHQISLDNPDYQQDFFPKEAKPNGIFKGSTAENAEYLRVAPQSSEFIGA
BTK^C481S, sequence (Q06187 whole entry C481S): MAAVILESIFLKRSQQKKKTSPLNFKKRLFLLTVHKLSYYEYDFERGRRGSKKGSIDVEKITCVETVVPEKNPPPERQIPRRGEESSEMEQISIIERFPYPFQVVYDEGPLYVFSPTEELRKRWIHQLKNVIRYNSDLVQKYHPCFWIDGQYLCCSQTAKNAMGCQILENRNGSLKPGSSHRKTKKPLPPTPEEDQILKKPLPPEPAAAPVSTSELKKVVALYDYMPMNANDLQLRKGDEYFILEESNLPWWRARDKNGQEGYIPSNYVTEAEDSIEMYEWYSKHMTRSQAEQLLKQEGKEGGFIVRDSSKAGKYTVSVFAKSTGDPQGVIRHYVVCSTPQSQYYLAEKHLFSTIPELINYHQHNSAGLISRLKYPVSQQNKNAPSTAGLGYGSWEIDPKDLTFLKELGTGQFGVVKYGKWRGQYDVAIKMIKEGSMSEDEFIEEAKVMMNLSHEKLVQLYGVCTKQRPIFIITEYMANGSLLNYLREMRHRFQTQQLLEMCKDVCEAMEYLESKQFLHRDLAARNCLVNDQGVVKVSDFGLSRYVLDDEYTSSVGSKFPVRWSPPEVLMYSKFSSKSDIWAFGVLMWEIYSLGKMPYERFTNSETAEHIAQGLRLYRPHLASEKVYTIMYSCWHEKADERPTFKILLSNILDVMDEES
BTK^WT, sequence (Q06187 whole entry): as the sequence (Q06187 whole entry C481S) above, with S481C counted along it

Regarding `COc1ccccc1C(=O)NCc1ccc(-c2nn([C@H]3C=C[C@H](OC(C)=O)C3)c3ncnc(N)c23)cc1` [Example 35, [(1R,4R)-4-[4-amino-3-[4-[[(2-methoxybenzoyl)amino]methyl]phenyl]pyrazolo[3,4-d]pyrimidin-1-yl]cyclopent-2-en-1-yl] acetate], the IC50 on BTK^WT (setting [2]) was no more than 10 nM; at BTK^C481S it was no more than 10 nM; on EGFR, 10 to 100 nM; in test [1], 10 to 100 nM.

Turning to `COc1ccccc1C(=O)NCc1ccc(-c2nn([C@H]3C=C[C@H](O)C3)c3ncnc(N)c23)cc1` [Example 36, N-[[4-[4-amino-1-[(1R,4R)-4-hydroxycyclopent-2-en-1-yl]pyrazolo[3,4-d]pyrimidin-3-yl]phenyl]methyl]-2-methoxy-benzamide], the IC50 on BTK^WT (setting [2]) was no more than 10 nM; at BTK^C481S it was no more than 10 nM; at EGFR, 100 to 1000 nM; in test [1] it was 100 to 1000 nM.

With `COc1ccccc1C(=O)NCc1ccc(-c2nn(C3CCCC(O)C3)c3ncnc(N)c23)cc1` (centres unmarked) [Example 37, N-[[4-[4-amino-1-(3-hydroxycyclohexyl)pyrazolo[3,4-d]pyrimidin-3-yl]phenyl]methyl]-2-methoxy-benzamide], the IC50 is no more than 10 nM at BTK^WT (setting [2]); 1.7 nM at BTK^WT (setting [3]); no more than 10 nM at BTK^C481S; 100 to 1000 nM at EGFR; 100 to 1000 nM in test [1].

For `COc1ccccc1C(=O)NCc1ccc(-n2nc(C3CCCC3)c3ncnc(N)c32)cc1` [Example 38, N-[[4-(7-amino-3-cyclopentyl-pyrazolo[4,3-d]pyrimidin-1-yl)phenyl]methyl]-2-methoxy-benzamide], the IC50 at BTK^WT (setting [2]) was no more than 10 nM; on BTK^C481S it was no more than 10 nM; on EGFR it was 10 to 100 nM; in test [1] it was 10 to 100 nM.

`COc1ccccc1C(=O)NCc1ccc(-c2nn(C3CCC(OC)CC3)c3ncnc(N)c23)cc1` (centres unmarked) [Example 39, N-[[4-[4-amino-1-(4-methoxycyclohexyl)pyrazolo[3,4-d]pyrimidin-3-yl]phenyl]methyl]-2-methoxy-benzamide]: the IC50 at BTK^WT (setting [2]) is no more than 10 nM; on BTK^WT (setting [3]), 1.4 nM; on BTK^C481S, no more than 10 nM; at EGFR, 100 to 1000 nM; in test [1] it was 10 to 100 nM.

Consider `COc1ccccc1C(=O)NCc1ccc(-c2nn(C3CC=CC3)c3ncnc(N)c23)cc1` [Example 40, N-[[4-(4-amino-1-cyclopent-3-en-1-yl-pyrazolo[3,4-d]pyrimidin-3-yl)phenyl]methyl]-2-methoxy-benzamide], for which the IC50 at BTK^WT (setting [2]) is no more than 10 nM; on BTK^C481S it was no more than 10 nM; at EGFR, 100 to 1000 nM; in test [1], 10 to 100 nM.

With `CCOC(=O)C1CCCC(n2nc(-c3ccc(CNC(=O)c4ccccc4OC)cc3)c3c(N)ncnc32)C1` (centres unmarked) [Example 41, ethyl 3-[4-amino-3-[4-[[(2-methoxybenzoyl)amino]methyl]phenyl]pyrazolo[3,4-d]pyrimidin-1-yl]cyclohexanecarboxylate], the IC50 on BTK^WT (setting [2]) is no more than 10 nM; at BTK^WT (setting [3]), 1.2 nM; on BTK^C481S, no more than 10 nM; on EGFR, 100 to 1000 nM; in test [1], 100 to 1000 nM.

Regarding `COc1ccccc1C(=O)NCc1ccc(-c2nn(C3CCCC(C(=O)N(C)C)C3)c3ncnc(N)c23)cc1` (centres unmarked) [Example 42, N-[[4-[4-amino-1-[3-(dimethylcarbamoyl)cyclohexyl]pyrazolo[3,4-d]pyrimidin-3-yl]phenyl]methyl]-2-methoxy-benzamide], the IC50 was no more than 10 nM at BTK^WT (setting [2]), no more than 10 nM at BTK^C481S, 1000 to 10000 nM at EGFR and 100 to 1000 nM in test [1].

`COc1ccc(F)cc1C(=O)NCc1ccc(-c2nn(C(C)(C)C)c3ncnc(N)c23)cc1` [Example 43, N-[[4-(4-amino-1-tert-butyl-pyrazolo[3,4-d]pyrimidin-3-yl)phenyl]methyl]-5-fluoro-2-methoxy-benzamide]: the IC50 was no more than 10 nM at BTK^WT (setting [2]), no more than 10 nM on BTK^C481S, 100 to 1000 nM at EGFR and 10 to 100 nM in test [1].

`COc1ccccc1C(=O)NCc1ccc(-c2nn([C@@H]3C=C[C@H](O)C3)c3ncnc(N)c23)cc1` [Example 44, N-[[4-[4-amino-1-[(1S,4R)-4-hydroxycyclopent-2-en-1-yl]pyrazolo[3,4-d]pyrimidin-3-yl]phenyl]methyl]-2-methoxy-benzamide]: the IC50 at BTK^WT (setting [2]) was no more than 10 nM; on BTK^C481S, no more than 10 nM; at EGFR, 1000 to 10000 nM; in test [1], 100 to 1000 nM.

In the case of `COc1ccccc1C(=O)NCc1ccc(-c2nn([C@@H]3C[C@@H](O)C4CC43)c3ncnc(N)c23)cc1` (stereo partly drawn) [Example 45, N-[[4-[4-amino-1-[(2R,4R)-4-hydroxy-2-bicyclo[3.1.0]hexanyl]pyrazolo[3,4-d]pyrimidin-3-yl]phenyl]methyl]-2-methoxy-benzamide], the IC50 at BTK^WT (setting [2]) was no more than 10 nM; on BTK^C481S, no more than 10 nM; on EGFR, 100 to 1000 nM; in test [1], 100 to 1000 nM.

For `COc1ccccc1C(=O)NCc1ccc(-c2nn(C3CCC(OC(=O)c4ccc(C)cc4)CC3)c3ncnc(N)c23)cc1` (centres unmarked) [Example 46, [4-[4-amino-3-[4-[[(2-methoxybenzoyl)amino]methyl]phenyl]pyrazolo[3,4-d]pyrimidin-1-yl]cyclohexyl] 4-methylbenzoate], the IC50 lay in the range of 10 to 100 nM on BTK^WT (setting [2]), 10 to 100 nM at BTK^C481S, 100 to 1000 nM on EGFR and 100 to 1000 nM in test [1].

With `COc1ccccc1C(=O)NCc1ccc(-c2nn([C@H]3C=C[C@@H](O)C3)c3ncnc(N)c23)cc1` [Example 47, N-[[4-[4-amino-1-[(1R,4S)-4-hydroxycyclopent-2-en-1-yl]pyrazolo[3,4-d]pyrimidin-3-yl]phenyl]methyl]-2-methoxy-benzamide], the IC50 was no more than 10 nM on BTK^WT (setting [2]), no more than 10 nM on BTK^C481S, 100 to 1000 nM on EGFR and 100 to 1000 nM in test [1].

On to `COc1ccccc1C(=O)NCc1ccc(-c2nn([C@H]3C=C[C@@H](OC(=O)C(C)(C)C)C3)c3ncnc(N)c23)cc1` [Example 48, [(1S,4R)-4-[4-amino-3-[4-[[(2-methoxybenzoyl)amino]methyl]phenyl]pyrazolo[3,4-d]pyrimidin-1-yl]cyclopent-2-en-1-yl] 2,2-dimethylpropanoate], for which the IC50 on BTK^WT (setting [2]) is 10 to 100 nM; at BTK^C481S it was no more than 10 nM; on EGFR it was 1000 to 10000 nM; in test [1], 100 to 1000 nM.

Take `COc1ccccc1C(=O)NCc1ccc(-c2nn(C3C=CCCC3)c3ncnc(N)c23)cc1` (centres unmarked) [Example 49, N-[[4-(4-amino-1-cyclohex-2-en-1-yl-pyrazolo[3,4-d]pyrimidin-3-yl)phenyl]methyl]-2-methoxy-benzamide]: the IC50 at BTK^WT (setting [2]) was no more than 10 nM; at BTK^WT (setting [3]), 0.4 nM; at BTK^C481S, no more than 10 nM; at EGFR, 10 to 100 nM; in test [1], 10 to 100 nM.

`COc1ccccc1C(=O)NCc1ccc(-c2nn([C@@H]3C=C[C@@H](O)C3)c3ncnc(N)c23)cc1` [Example 50, N-[[4-[4-amino-1-[(1S,4S)-4-hydroxycyclopent-2-en-1-yl]pyrazolo[3,4-d]pyrimidin-3-yl]phenyl]methyl]-2-methoxy-benzamide]: the IC50 at BTK^WT (setting [2]) is no more than 10 nM; at BTK^C481S it was no more than 10 nM; at EGFR, 100 to 1000 nM; in test [1] it was 100 to 1000 nM.

As to `COc1ccccc1C(=O)NCc1ccc(-c2nn(C(C)(C)C)c3ncnc(N)c23)cc1` [Example 51, N-[[4-(4-amino-1-tert-butyl-pyrazolo[3,4-d]pyrimidin-3-yl)phenyl]methyl]-2-methoxy-benzamide], the IC50 is no more than 10 nM at BTK^WT (setting [2]); 0.6 nM on BTK^WT (setting [3]); no more than 10 nM at BTK^C481S; 10 to 100 nM at EGFR; 10 to 100 nM in test [1].

On to `COc1ccccc1C(=O)NCc1ccc(-c2nn(C3CC4CC4C3)c3ncnc(N)c23)cc1` (centres unmarked) [Example 52, N-[[4-[4-amino-1-(3-bicyclo[3.1.0]hexanyl)pyrazolo[3,4-d]pyrimidin-3-yl]phenyl]methyl]-2-methoxy-benzamide], for which the IC50 on BTK^WT (setting [2]) was no more than 10 nM; at BTK^C481S, no more than 10 nM; on EGFR, 10 to 100 nM; in test [1], 10 to 100 nM.

In the case of `COc1ccc(F)cc1C(=O)NCc1ccc(-c2nn([C@H]3C=C[C@H](O)C3)c3ncnc(N)c23)cc1` [Example 53, N-[[4-[4-Amino-1-[(1R,4R)-4-hydroxycyclopent-2-en-1-yl]pyrazolo[3,4-d]pyrimidin-3-yl]phenyl]methyl]-5-fluoro-2-methoxy-benzamide], the IC50 on BTK^WT (setting [2]) is 10 to 100 nM; on BTK^C481S, no more than 10 nM; at EGFR it was 1000 to 10000 nM; in test [1], 1000 to 10000 nM.

Take `COc1ccccc1C(=O)NCc1ccc(-c2nn([C@H]3C=C[C@H](F)C3)c3ncnc(N)c23)cc1` [Example 54, N-[(4-{4-amino-1-[(1R,4R)-4-fluorocyclopent-2-en-1-yl]-1H-pyrazolo[3,4-d]pyrimidin-3-yl}phenyl)methyl]-2-methoxybenzamide]: the IC50 at BTK^WT (setting [2]) is no more than 10 nM; at BTK^WT (setting [3]), 0.7 nM; on BTK^C481S, no more than 10 nM; on EGFR, 1000 to 10000 nM; in test [1] it was 100 to 1000 nM.
